# Data published in patent US12391648B2, “Pyridyloxy thioester derivative and preparation method therefor, herbicidal composition, and application” (Qingdao Kingagroot Chemical Compound Co., Ltd., priority 2018, dated 2025).
# Tests used:
# Assay in all cases: Post-emergence test experiment (Table 3, 1000 g/ha)
# Type in all cases: in vivo
# Conditions in all cases: post-emergence spray, after 3 weeks, fresh weight inhibition
# Leptochloa chinensis = tested on: Leptochloa chinensis
# How it was run: (§1)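 Weed seeds sown in soil-filled pots in greenhouse, sprayed at 2-3 leaf stage (2 weeks after sowing) with compound in acetone/tween-80 plus methyl oleate emulsible concentrate (1.5 L/ha) diluted in water. Fresh-weight growth inhibition scored after 3 weeks on 0-5 scale (5: >85%, 0: <5%).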
# Abutilon theophrasti = tested on: Abutilon theophrasti
# How it was run: as §1
# Galium spurium = tested on: Galium spurium
# How it was run: as §1
# Monochoria vaginalis = tested on: Monochoria vaginalis
# How it was run: as §1
# Digitaria sanguinalis = tested on: Digitaria sanguinalis
# How it was run: as §1
# Setaria viridis = tested on: Setaria viridis
# How it was run: as §1
SMILES,Activity level (growth inhibition rate) Leptochloa chinensis (Leptochloa chinensis),Activity level (growth inhibition rate) Abutilon theophrasti (Abutilon theophrasti),Activity level (growth inhibition rate) Galium spurium (Galium spurium),Activity level (growth inhibition rate) Monochoria Vaginalis (Monochoria vaginalis),Activity level (growth inhibition rate) Digitaria sanguinalis (Digitaria sanguinalis),Activity level (growth inhibition rate) Setaria viridis (Setaria viridis)
CC(Oc1nc(F)c(Cl)c(N)c1Cl)C(=O)SCC(Cl)=C(Cl)Cl (stereo not drawn) [Compound 92],5 (Level 5: the growth inhibition rate is greater than 85%),5 (Level 5: the growth inhibition rate is greater than 85%),5 (Level 5: the growth inhibition rate is greater than 85%),5 (Level 5: the growth inhibition rate is greater than 85%),5 (Level 5: the growth inhibition rate is greater than 85%),5 (Level 5: the growth inhibition rate is greater than 85%)
CC(Oc1nc(F)c(Cl)c(N)c1Cl)C(=O)SCC(F)F (stereo not drawn) [Compound 157],5 (Level 5: the growth inhibition rate is greater than 85%),5 (Level 5: the growth inhibition rate is greater than 85%),5 (Level 5: the growth inhibition rate is greater than 85%),5 (Level 5: the growth inhibition rate is greater than 85%),5 (Level 5: the growth inhibition rate is greater than 85%),5 (Level 5: the growth inhibition rate is greater than 85%)
CCCCCCCCCCSC(=O)C(C)Oc1nc(F)c(Cl)c(N)c1Cl (stereo not drawn) [Compound 141],5 (Level 5: the growth inhibition rate is greater than 85%),5 (Level 5: the growth inhibition rate is greater than 85%),5 (Level 5: the growth inhibition rate is greater than 85%),5 (Level 5: the growth inhibition rate is greater than 85%),5 (Level 5: the growth inhibition rate is greater than 85%),5 (Level 5: the growth inhibition rate is greater than 85%)
C=CCOC(=O)C(C)(C)SC(=O)C(C)Oc1nc(F)c(Cl)c(N)c1Cl (stereo not drawn) [Compound 96],5 (Level 5: the growth inhibition rate is greater than 85%),5 (Level 5: the growth inhibition rate is greater than 85%),5 (Level 5: the growth inhibition rate is greater than 85%),5 (Level 5: the growth inhibition rate is greater than 85%),5 (Level 5: the growth inhibition rate is greater than 85%),5 (Level 5: the growth inhibition rate is greater than 85%)
CSC(=O)C(C)Oc1nc(C(F)(F)F)c(Cl)c(N)c1Cl (stereo not drawn) [Compound 6],5 (Level 5: the growth inhibition rate is greater than 85%),5 (Level 5: the growth inhibition rate is greater than 85%),5 (Level 5: the growth inhibition rate is greater than 85%),5 (Level 5: the growth inhibition rate is greater than 85%),5 (Level 5: the growth inhibition rate is greater than 85%),5 (Level 5: the growth inhibition rate is greater than 85%)
COC(=O)CSC(=O)C(C)Oc1nc(F)c(Cl)c(N)c1Cl (stereo not drawn) [Compound 93],5 (Level 5: the growth inhibition rate is greater than 85%),5 (Level 5: the growth inhibition rate is greater than 85%),5 (Level 5: the growth inhibition rate is greater than 85%),5 (Level 5: the growth inhibition rate is greater than 85%),5 (Level 5: the growth inhibition rate is greater than 85%),5 (Level 5: the growth inhibition rate is greater than 85%)
CCCc1c(F)nc(OC(C)C(=O)SC)c(C2CC2)c1N (stereo not drawn) [Compound 14],5 (Level 5: the growth inhibition rate is greater than 85%),5 (Level 5: the growth inhibition rate is greater than 85%),5 (Level 5: the growth inhibition rate is greater than 85%),5 (Level 5: the growth inhibition rate is greater than 85%),5 (Level 5: the growth inhibition rate is greater than 85%),5 (Level 5: the growth inhibition rate is greater than 85%)
CCC(C)CCSC(=O)C(C)Oc1nc(F)c(Cl)c(N)c1Cl (stereo not drawn) [Compound 153],5 (Level 5: the growth inhibition rate is greater than 85%),5 (Level 5: the growth inhibition rate is greater than 85%),5 (Level 5: the growth inhibition rate is greater than 85%),5 (Level 5: the growth inhibition rate is greater than 85%),5 (Level 5: the growth inhibition rate is greater than 85%),5 (Level 5: the growth inhibition rate is greater than 85%)
CC(C)CSC(=O)C(C)Oc1nc(F)c(Cl)c(N)c1Cl (stereo not drawn) [Compound 133],5 (Level 5: the growth inhibition rate is greater than 85%),5 (Level 5: the growth inhibition rate is greater than 85%),5 (Level 5: the growth inhibition rate is greater than 85%),5 (Level 5: the growth inhibition rate is greater than 85%),5 (Level 5: the growth inhibition rate is greater than 85%),5 (Level 5: the growth inhibition rate is greater than 85%)
CNc1c(Cl)c(F)nc(OC(C)C(=O)SC)c1Cl (stereo not drawn) [Compound 127],5 (Level 5: the growth inhibition rate is greater than 85%),5 (Level 5: the growth inhibition rate is greater than 85%),5 (Level 5: the growth inhibition rate is greater than 85%),5 (Level 5: the growth inhibition rate is greater than 85%),5 (Level 5: the growth inhibition rate is greater than 85%),5 (Level 5: the growth inhibition rate is greater than 85%)
CC(Oc1nc(F)c(Cl)c(N)c1Cl)C(=O)SCC(F)(F)C(F)(F)F (stereo not drawn) [Compound 80],5 (Level 5: the growth inhibition rate is greater than 85%),5 (Level 5: the growth inhibition rate is greater than 85%),5 (Level 5: the growth inhibition rate is greater than 85%),5 (Level 5: the growth inhibition rate is greater than 85%),5 (Level 5: the growth inhibition rate is greater than 85%),5 (Level 5: the growth inhibition rate is greater than 85%)
CCCCSC(=O)C(C)Oc1nc(F)c(Cl)c(N)c1Cl (stereo not drawn) [Compound 70],5 (Level 5: the growth inhibition rate is greater than 85%),5 (Level 5: the growth inhibition rate is greater than 85%),5 (Level 5: the growth inhibition rate is greater than 85%),5 (Level 5: the growth inhibition rate is greater than 85%),5 (Level 5: the growth inhibition rate is greater than 85%),5 (Level 5: the growth inhibition rate is greater than 85%)
CCC(CC)SC(=O)C(C)Oc1nc(F)c(Cl)c(N)c1Cl (stereo not drawn) [Compound 150],5 (Level 5: the growth inhibition rate is greater than 85%),5 (Level 5: the growth inhibition rate is greater than 85%),5 (Level 5: the growth inhibition rate is greater than 85%),5 (Level 5: the growth inhibition rate is greater than 85%),5 (Level 5: the growth inhibition rate is greater than 85%),5 (Level 5: the growth inhibition rate is greater than 85%)
CCOC(=O)SC(=O)C(C)Oc1nc(F)c(Cl)c(N)c1Cl (stereo not drawn) [Compound 101],5 (Level 5: the growth inhibition rate is greater than 85%),5 (Level 5: the growth inhibition rate is greater than 85%),5 (Level 5: the growth inhibition rate is greater than 85%),5 (Level 5: the growth inhibition rate is greater than 85%),5 (Level 5: the growth inhibition rate is greater than 85%),5 (Level 5: the growth inhibition rate is greater than 85%)
